# Test results as given in ChEMBL document CHEMBL3414444, “Antiplasmodial activity: the first proof of inhibition of heme crystallization by marine isonitriles” (Eur J Med Chem, 2015).
# How the values were obtained:
# Plasmodium falciparum [1] = experiment: Antiplasmodial activity against Plasmodium falciparum K1; assay type: functional, organism-based
# [2] = Inhibition of beta-hematin formation after 3 to 5 mins by EBHIA assay; assay type: physicochemical
# Plasmodium falciparum [3] = experiment: Antiplasmodial activity against Plasmodium falciparum D6; assay type: functional, organism-based
# Plasmodium falciparum [4] = experiment: Antiplasmodial activity against Plasmodium falciparum W2; assay type: functional, organism-based
# Plasmodium falciparum [5] = experiment: Antiplasmodial activity against Plasmodium falciparum NF54; assay type: functional, organism-based
IC50 (Plasmodium falciparum [1]),inhibition (INH) [2],IC50 (Plasmodium falciparum [3]),IC50 (Plasmodium falciparum [5]),SMILES,IC50 (Plasmodium falciparum [4])
> 30000 nM,–,–,–,CC(C)=CCC[C@@H](C)[C@H]1CC[C@](C)(N=C=S)[C@H]2CCC(C)=C[C@H]12,–
–,4%,–,–,CCN(CC)CCCC(C)Nc1ccnc2cc(Cl)ccc12 (stereo not drawn) [CHLOROQUINE],–
24 nM,26%,84 nM,–,[C-]#[N+][C@@]1(C)CC[C@H]2[C@H]3[C@H]4C(=CC(C)(C)C[C@@H]4C[C@@H]2C)CC[C@@H]31,24 nM
–,62%,–,–,[C-]#[N+][C@]1(C)CC[C@H](/C(C)=C\C=C\C(C)C)CC1,–
5700 nM,71%,–,5700 nM,CC1=CC2C(CC1)[C@](C)(N=C=S)CC[C@@H]2C(C)C (stereo partly drawn),–

SMILES,IC50 (Plasmodium falciparum [1]),inhibition (INH) [2],IC50 (Plasmodium falciparum [3]),IC50 (Plasmodium falciparum [5]),IC50 (Plasmodium falciparum [4])
[C-]#[N+][C@@]1(C)CC[C@H]2[C@H]3[C@@H]4[C@H](C[C@@H](C)[C@@](C)(N=C=O)[C@H]4CC[C@@H]31)C[C@@H]2C,9 nM,–,–,–,–
[C-]#[N+][C@@]1(C)CC[C@H]2[C@H]3[C@@H](C(=C)CC[C@@H]31)[C@@H](C=C(C)C)C[C@@H]2C,–,14%,–,–,423 nM
